# Assay results taken from patent US20030134859A1 (SANKYO COMPANY, LIMITED, priority 2000, published 2003).
# Where two headings read alike, the source gives them in different places.
# Assays:
# Balb/c mice = test: Prevention of concanavalin A liver injury; assay type: in vivo, mouse; conditions: Mus musculus, po, 24 h, 10 mg/mL suspension at 10 mL/kg, 30 min prior to Con A, plasma 24 hr after Con A
# Experimental: Five (5) Balb/c mice (female, 6-8 weeks old) per group were used. Liver injury was elicited in the mouse by injection of concanavalin A (Con A) dissolved in saline (2.0 mg/mL) into the tail vein at a volume of 10 mL/kg of the solution (Hepatology, 21, 190-198 (1995)).
# The test compounds were suspended in distilled water containing 0.5% CMC, at a concentration of 10 mg/mL. This suspended solution was orally administered to the mouse at a volume of 10 mL/kg, 30 min prior to injection of Con A (group A).
# Apart from this group, distilled water containing 0.5% CMC powder, instead of the test compound, was orally administered in the second group of mice (group B). In the 3rd group, nothing was given to the mice (group C).
# Twenty four (24) hr after the injection of Con A, blood was collected from the abdominal aorta of the mice and the plasma was isolated while mixing with heparin. Activities of glutamic acid oxaloacetic acid transaminase (AST) and glutamic acid pyruvic acid transaminase (ALT) in the plasma were determined according to the methods described by Nagakawa et al. (J. Pharmacol. Exp. Ther., 264, 496-500 (1993)). From the values obtained inhibitory rates of the test compound against AST and ALT levels which had been increased by injection of Con A, were obtained based on the following equation.
# Inhibitory Rate(%)={1−[(A−C)/(B−C)]}×100
# A: The average level of AST or ALT in the group A
# B: The average level of AST or ALT in the group B
# C: The average level of AST or ALT in the group C
# ABCA1 mRNA = test: Quantitative analysis of ABCA1 mRNA (TaqMan PCR) in RAW264.7 cells; assay type: cell-based, mouse; conditions: 100 nM test compound, 24 hr, normalised to β-actin, DMSO = 100
# Experimental: The mouse monocyte/macrophage cell line, RAW264.7 (ATCC TIB71) was purchased from Dainippon Pharmaceutical Co., Ltd. As the medium, the Dulbecco's modified Eagle's medium (DMEM medium; GIBCO, Cat. No. 11995-040) containing bovine fetal serum (the final concentration: 10% (v/v), MOREGATE, lot No. 474030), penicillin G (the final concentration: 50 units/mL, GIBCO) and streptomycin (the final concentration: 20 μg/mL, GIBCO) was used.
# The culture of RAW264.7 cells was carried out in a CO2 incubator (37° C., 95% R.H., 5% of CO2).
# A 2 ml volume of RAW264.7 cells suspension (1×10^6 cells/mL) was plated in each well of a 6-well plate (2×10^6 cells/well) and the cells were incubated for 2 hr in a CO2 incubator. The test compounds dissolved in DMSO were diluted with DMEM medium by 20 times, and were added to the wells at a volume of 4 μL/well (final concentration of the test compound: 100 nM). As the control, the DMSO solution was diluted with the DMEM medium by 20 times, and was added to the wells at the volume of 4 μL/well. After the cells were cultured in a CO2 incubator for 24 hr, the medium was removed and the total RNA was purified by using an RNeasy Mini Kit (Qiagen), according to the protocol attached. The concentration of the RNA in the samples obtained was calculated from absorbance at 260 nm (A260=1=40 μg/ml). Six (6) μg of total RNA were diluted with RNAase-free water so as to be 22.6 μL, which was heated at 65° C. for 10 min, and then was cooled on ice. The RNA in the solution was used as the template, and the cDNA was synthesized by using a First-strand cDNA Synthesis Kit (Amersham Pharmacia Biotech). In this reaction, a solution was prepared having the following composition and was reacted at 37° C. for 1 hr.
# After the reaction, 3 μL of soution were collected from each of the reaction mixtures of the test compound-treated cell samples and that of the control cell samples. The mixed solution was used as the standard solution. The standard solution and each reaction solution were purified with a Chroma Spin-100+DEPC-H2O Column according to the protocol attached, and they were used as the template for TaqMan PCR (Template). In order to draw the calibration curve, the standard solution was diluted by every 5 times for 5 steps and each solution was used for TaqMan PCR. TaqMan PCR was carried out in ABCA1 and β-actin. As Primers for use in the TaqMan PCR, 4 oligonucleotides (abca1 forward (S3), abca1 reverse (AS3), β-actin forward (S4) and β-actin reverse (AS4)) were designed which are shown in sequences No. 5 to 8 in the sequence table described later. The synthesis and purification of these 4 oligomers was ordered from Amersham Pharmacia Biotech Co.
# As FAM-TAMRA labelled TaqMan Probe, 2 kinds of oligonucleotides (abca1 (p1) and β-actin (p2)) were designed and were ordered from Applied Biosystems Co. to synthesize and purify.
# The following reaction mixture of ABCA1 or β-actin was divided into 2 wells of a MicroAmp Optical 96-well Reaction Plate (Applied Biosystem Co.). TaqMan Universal PCR Master Mix was purchased from Applied Biosystem Co.
# The plate was covered with a MicroAmp Optical Cap (Applied Biosystems Co.), and TaqMan PCR was carried out by using an ABI PRISM 7,700 Sequence Detection System (Applied Biosystem Co.) under the following conditions:
# An analysis was made according to the procedures described in the manual of Sequence Detection Software (Applied Biosystem Co.) and the increased rate of ABCA1 mRNA due to the test compound was calculated based on the following equation.
# A: Amount of the ABCA1 mRNA in the presence of the test compound
# B: Amount of the β-actin mRNA in the presence of the test compound
# C: Amount of the ABCA1 mRNA in the presence of DMSO
# D: Amount of the β-actin mRNA in the presence of DMSO
# Increase Rate (%) of ABCA1 mRNA=(A/B)/(C/D)×100
# [1] = read-out: Preventing rate against liver injury, ALT (%)
# [2] = read-out: Preventing rate against liver injury, AST (%)
Compound,"inhibition in vivo at 10000 µg/mL, 100 mg/kg (Balb/c mice; [1]) [%]","inhibition in vivo at 10000 µg/mL, 100 mg/kg (Balb/c mice; [2]) [%]",Rate of Increase (%) of ABCA1 mRNA (ABCA1 mRNA) [%]
"Cc1ccc(NC(=O)c2cc([N+](=O)[O-])ccc2Cl)cc1 [Example 1, N-(4-Methylphenyl)-(2-chloro-5-nitrophenyl)carboxamide]",40.1,19,
"O=C(Nc1ccc(-c2ccccc2)cc1)c1cc([N+](=O)[O-])ccc1Cl [Example 2, N-(4-Phenylphenyl)-(2-chloro-5-nitrophenyl)carboxamide]",64.5,4.1,
"O=C(Nc1ccc(-c2ccccn2)cc1)c1cc([N+](=O)[O-])ccc1Cl [Example 8, N-[4-(2-Pyridyl)phenyl]-(2-chloro-5-nitrophenyl)carboxamide]",57,56,
"Cc1ccc2nc(-c3ccc(NC(=O)c4cc([N+](=O)[O-])ccc4Cl)cc3)sc2c1 [Example 10, N-[4-(6-Methylbenzothiazol-2-yl)phenyl]-(2-chloro-5-nitrophenyl)carboxamide]",55.9,49,
"CCCCCc1ccc(NC(=O)c2cc([N+](=O)[O-])ccc2Cl)cc1 [Example 16, N-(4-Pentylphenyl)-(2-chloro-5-nitrophenyl)carboxamide]",44.4,21.4,
"N#Cc1ccc(NC(=O)c2cc([N+](=O)[O-])ccc2Cl)cc1 [Example 20, N-(4-Cyanophenyl)-(2-chloro-5-nitrophenyl)carboxamide]",67.2,77,
"O=C(Nc1nc(-c2ccccc2)cs1)c1cc([N+](=O)[O-])ccc1Cl [Example 35, N-(4-Phenylthiazol-2-yl)-(2-chloro-5-nitrophenyl)carboxamide]",12.4,,
"O=C(Nc1nc(-c2cccnc2)cs1)c1cc([N+](=O)[O-])ccc1Cl [Example 37, N-[4-(3-Pyridyl)thiazol-2-yl)-(2-chloro-5-nitrophenyl)carboxamide]",20.7,,
"COc1cnc(NS(=O)(=O)c2ccc(NC(=O)c3cc([N+](=O)[O-])ccc3Cl)cc2)nc1 [Example 105, N-[4-[(5-Methoxypyrimidin-2-yl)aminosulfonyl]phenyl]-(2-chloro-5-nitrophenyl)carboxamide]",22.4,27.5,
"N=C(N)NS(=O)(=O)c1ccc(NC(=O)c2cc([N+](=O)[O-])ccc2Cl)cc1 [Example 106, N-[4-(Amidinoaminosulfonyl)phenyl]-(2-chloro-5-nitrophenyl)carboxamide]",114,106,
O=C(Nc1ccc(S(=O)(=O)Nc2cccnc2)cc1)c1cc([N+](=O)[O-])ccc1Cl [Example 178],50.5,64.5,
"CCCCCCCCN(CCCC)c1ccc(-c2ccc(NC(=O)c3cc([N+](=O)[O-])ccc3Cl)cc2)cc1.Cl [Example 223, N-[4-[4-(N-Butyl-N-octylamino)phenyl]phenyl]-(2-chloro-5-nitrophenyl)carboxamide mono-hydrochloride]",,,204.0
"CCCCCCCCN(CCC)c1ccc(-c2ccc(NC(=O)c3cc([N+](=O)[O-])ccc3Cl)cc2)cc1 [Example 224, N-[4-[4-(N-Octyl-N-propylamino)phenyl]phenyl]-(2-chloro-5-nitrophenyl)carboxamide]",,,179.0
"O=C(Nc1ccc(CCNC(=S)Nc2cccnc2)cc1)c1cc([N+](=O)[O-])ccc1Cl [Example 273, N-[4-[2-(Pyridin-3-yl)aminothiocarbonylaminoethyl]phenyl]-(2-chloro-5-nitrophenyl)carboxamide]",,,146.0
